Legend:
[1] = molecular target: T1, P2Y6 receptor (hP2Y6R) (Homo sapiens, UniProt Q15077); test: FLIPR calcium mobilization, inhibition of UDP ([…]) response in […]1-hP2Y6R cells; assay type: cell-based; settings: read-out: P2Y6R, mean IC50 ± SEM (μM) or % inhibition at 400 μM^a
T1 construct: gene P2RY6

[2] = molecular target: T2, P2Y14 receptor (hP2Y14R) (Homo sapiens, UniProt Q15391); test: competitive binding vs fluorescent antagonist MRS4174, whole CHO-hP2Y14R cells, flow cytometry; single concentration […]; assay type: cell-based; settings: read-out: P2Y14, % inhibition at 100 μM (n = 3)
T2 construct: gene P2RY14
T2 sequence (Q15391 1-338): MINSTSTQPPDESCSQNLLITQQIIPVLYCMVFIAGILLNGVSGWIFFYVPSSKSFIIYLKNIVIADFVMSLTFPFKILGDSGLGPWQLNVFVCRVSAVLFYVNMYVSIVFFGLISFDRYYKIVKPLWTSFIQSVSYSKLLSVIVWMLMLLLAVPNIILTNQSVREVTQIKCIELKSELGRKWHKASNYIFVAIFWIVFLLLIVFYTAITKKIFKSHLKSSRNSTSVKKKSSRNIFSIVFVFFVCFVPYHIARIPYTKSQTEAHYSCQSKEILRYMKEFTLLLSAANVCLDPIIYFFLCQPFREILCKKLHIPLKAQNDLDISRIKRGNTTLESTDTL

T1 sequence (Q15077 whole entry): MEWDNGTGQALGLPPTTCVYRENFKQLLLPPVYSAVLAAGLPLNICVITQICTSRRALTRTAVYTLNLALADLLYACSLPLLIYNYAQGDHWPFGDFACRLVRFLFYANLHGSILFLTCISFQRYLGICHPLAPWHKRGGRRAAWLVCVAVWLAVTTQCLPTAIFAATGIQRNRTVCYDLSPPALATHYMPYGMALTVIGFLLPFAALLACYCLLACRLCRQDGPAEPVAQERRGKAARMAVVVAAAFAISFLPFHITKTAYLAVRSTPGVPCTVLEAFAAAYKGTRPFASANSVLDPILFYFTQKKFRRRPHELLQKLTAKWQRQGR

Row | IC50 [1] [µM] | inhibition at 100 µM [2] [%] | Compound
1 | 75.7 ± 11.5 | – | CCNC(=O)c1cc2c(-c3cc(C(C)(C)O)ccc3Oc3c(C)cc(F)cc3C)cn(C)c(=O)c2[nH]1 [ABBV-744]
2 | 574 ± 181 | – | COc1cccc([C@@H](Oc2ccc3c(cnn3-c3ccc(F)cc3)c2)[C@H](C)NC(=O)C(F)(F)F)c1 [AZD5423]
3 | – | 50 ± 4 | Cc1cc(C(=O)Nc2cc(Oc3ccc4nc(NC(=O)C5CC5)cn4n3)ccc2C)n(C)n1 [TAK-593]
